Assay results taken from PubChem BioAssay AID2060894 (Molecular Pharmacology Branch, DTP, NCI, 2025).

Test system: K12877-001-R-J1-PDC complex spheroid viability
Assay: Anticancer human tumor K12877-001-R-J1-PDC patient-derived lung adenocarcinoma cell line growth inhibition [RAS]
Conditions: for IC50: curve of first compound; for viability, T/C: stronger effect = lower value
Procedure, shortened: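 Multi-cell-type spheroids: tumor cells plus HUVEC endothelial cells and mesenchymal stem cells. RAS-pathway inhibitors were combined with targeted agents, each dosed in half-log steps down from clinical Cmax, or from 10 microM when Cmax was unknown.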
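Further: spheroids exposed to agents for one week before readout.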
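Wherever viability, T/C is given: tumour cells co-cultured with HUVEC and mesenchymal stem cells in spheroids.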

`Cc1nc(N2CCC3(CC2)COC(C)C3N)c(CO)nc1Sc1ccnc(N)c1Cl` (configuration not stated) + CCn1c(-c2cc(N3CCN(C)CC3)cnc2C(C)OC)c2c3cc(ccc31)-c1csc(n1)CC(NC(=O)C1CC1C)C(=O)N1CCCC(N1)C(=O)OCC(C)(C)C2 showed an IC50 (second compound 0.000949 µM) greater than 10 µM, an IC50 (second compound 0.003 µM) greater than 10 µM and an IC50 (second compound 0.00949 µM) greater than 10 µM. For the same molecule, the IC50 (second compound 0.03 µM) was greater than 10 µM, the IC50 (second compound 0.0949 µM) was greater than 10 µM and the IC50 (second compound 0.3 µM) was 8.66 µM. For the same molecule, the viability, T/C (second compound 0.000949 µM, first compound 0.0316 µM) was 77.8%, the viability, T/C (second compound 0.000949 µM, first compound 0.1 µM) was 69.4% and the viability, T/C (second compound 0.000949 µM, first compound 0.316 µM) was 71.7%. The viability, T/C (second compound 0.000949 µM, first compound 1 µM) was 59%, the viability, T/C (second compound 0.000949 µM, first compound 3.16 µM) was 66.7% and the viability, T/C (second compound 0.000949 µM, first compound 10 µM) was 58.7%. For the same molecule, the viability, T/C (second compound 0.003 µM, first compound 0.0316 µM) was 63.6%, the viability, T/C (second compound 0.003 µM, first compound 0.1 µM) was 57.7% and the viability, T/C (second compound 0.003 µM, first compound 0.316 µM) was 62.1%. It also gave a viability, T/C (second compound 0.003 µM, first compound 1 µM) of 63.4%, a viability, T/C (second compound 0.003 µM, first compound 3.16 µM) of 69.3% and a viability, T/C (second compound 0.003 µM, first compound 10 µM) of 71.3%. It also gave a viability, T/C (second compound 0.00949 µM, first compound 0.0316 µM) of 72.2%, a viability, T/C (second compound 0.00949 µM, first compound 0.1 µM) of 70.8% and a viability, T/C (second compound 0.00949 µM, first compound 0.316 µM) of 79.8%. For the same molecule, the viability, T/C (second compound 0.00949 µM, first compound 1 µM) was 73.4%, the viability, T/C (second compound 0.00949 µM, first compound 3.16 µM) was 71.8% and the viability, T/C (second compound 0.00949 µM, first compound 10 µM) was 56.4%. For the same molecule, the viability, T/C (second compound 0.03 µM, first compound 0.0316 µM) was 97.1%, the viability, T/C (second compound 0.03 µM, first compound 0.1 µM) was 93.7% and the viability, T/C (second compound 0.03 µM, first compound 0.316 µM) was 93.9%. It also gave a viability, T/C (second compound 0.03 µM, first compound 1 µM) of 81%, a viability, T/C (second compound 0.03 µM, first compound 3.16 µM) of 75.9% and a viability, T/C (second compound 0.03 µM, first compound 10 µM) of 59.5%. For the same molecule, the viability, T/C (second compound 0.0949 µM, first compound 0.0316 µM) was 98.8%, the viability, T/C (second compound 0.0949 µM, first compound 0.1 µM) was 94% and the viability, T/C (second compound 0.0949 µM, first compound 0.316 µM) was 94.5%. The viability, T/C (second compound 0.0949 µM, first compound 1 µM) was 76.2%, the viability, T/C (second compound 0.0949 µM, first compound 3.16 µM) was 67.2% and the viability, T/C (second compound 0.0949 µM, first compound 10 µM) was 50.2%. It also gave a viability, T/C (second compound 0.3 µM, first compound 0.0316 µM) of 97.5%, a viability, T/C (second compound 0.3 µM, first compound 0.1 µM) of 86.1% and a viability, T/C (second compound 0.3 µM, first compound 0.316 µM) of 81.5%. It also gave a viability, T/C (second compound 0.3 µM, first compound 1 µM) of 71.2%, a viability, T/C (second compound 0.3 µM, first compound 3.16 µM) of 65.6% and a viability, T/C (second compound 0.3 µM, first compound 10 µM) of 45.6%.
